Publication PMC9227305, “Photoinduced Synthesis of Methylated Marine Cyclopeptide Galaxamide Analogs with Isoindolinone as Anticancer Agents” (Marine Drugs, 2022)
Read-outs that look alike come from different tables or passages of the source. *1 amine or outer side, *2 acyl side, *3 side chain or, on linkers, in order; H or OH if unused. Where a SMILES comes first, the peptide text is derived from it. [ ]: non-standard residue; d: D form. X1 = O=C1c2ccccc2[C@@](O)(CN(Cc2ccccc2)[*:1])N1CC(=O)[*:2]; NMeL = CN[C@@H](CC(C)C)C(=O)O

Assays:
Type in all cases: cell-based, human
[1] = test system: lactate dehydrogenase in HepG-2 cells; test: Lactate dehydrogenase (LDH) activity assay in cells; settings: 48 h
Excerpt: The accumulation of lactate dehydrogenase can produce lactate metabolites and cause the deterioration of tumor cells. By inhibiting lactate dehydrogenase activity, the energy supply of tumor cells would be blocked, thus reducing their metastasis and progression. Therefore, in this paper, we also investigated the inhibitory activity of compound 8 on lactate dehydrogenase in HepG-2 cells. It has been known that LDH could catalyze lactic acid to generate pyruvate, which could react with 2,4-dinitrophenylhydrazine (DNPH) to form dinitrophenyl-pyruvate and form a reddish-brown product after reacting with an alkaline solution. The obtained product can be assessed by visible spectrophotometry. […]
Lactate dehydrogenase activity of HepG-2 cells treated with compound 8 was examined by using the Lactate Dehydrogenase Kit (Beijing Solarbio Science & Technology, Beijing, China) according to the instructions for use. […] Then the other reagents in the Lactate Dehydrogenase Kit (Beyotime Biotechnology, Shanghai, China) were added according to the instructions, and the absorption of the mixture was measured by the spectrophotometer. […] The absorption of the standard solution at 450 nm was measured to plot the standard curve. […]

HepG-2 cells [2] = test: Mitochondrial membrane potential, rhodamine 123 flow cytometry; settings: control 44.9%
Experimental: A classical fluorescent dye, rhodamine 123, is selectively sequestered by active mitochondrial respiration, but is washed out in cells with decreased MMP, so that the dye fluorescence intensity reflects the level of mitochondrial activity and can be applied in the monitoring of MMP [23].
In this study, we have studied the change of MMP of HepG-2 cells after treatment with different concentrations (0, 5.5, 11 and 22 µM within 48 h) and different time periods (12, 24 and 48 h with 11 µM) of compound 8. Cells were stained with rhodamine 123 and analyzed by flow cytometry. […] The aforementioned analysis clearly discloses that the cyclic peptides can affect the mitochondrial membrane potential and induce apoptosis, consistent with the findings in cell cycle analysis.
Cells in the logarithmic phase were seeded in 6-well plates and incubated for 24 h. After refreshing the culture medium, different concentrations of compound 8 (0, 5.5, 11, 22 μM) were added and co-incubated for 48 h. Meanwhile, the cells were also treated with 11 μM of compound 8 within different time periods (12 h, 24 h, 48 h). Then, the cells were collected by trypsin digestion and washed with phosphate-buffered solution. After centrifuging (1000 r/min) for 5 min, the obtained cell precipitate was suspended in PBS (100 µL); then, 100 µL of rhodamine 123 (1 µM) was added and incubated for 20 min. The cells were centrifuged, resuspended in 600 µL PBS, and analyzed by flow cytometry (maximum excitation wavelength 507 and maximum emission wavelength 529 nm). At least 10,000 events were counted in the experiment.

HepG-2 cells [3] = settings: 48 h; for Q4 cells (viable, lower left): human
Experimental: HepG-2 cells were treated with 0, 5.5, 11 and 22 µM of compound 8 and incubated for 48 h, then double-stained carefully by membrane-linked protein Annexin-V-fluorescein isothiocyanate (FITC) and propidium iodide (PI) for flow cytometry analysis. Generally, in the early stages of apoptosis, phosphatidylserine flips from the inner cell membrane to the surface of the cell membrane. […] Propidium iodide (PI) is a nucleic acid dye that can only cross the membrane of advanced apoptosis and necrotic cells, reddening the nucleus. Therefore, when the drug-treated cells are double-stained by the two fluorescent dyes, early and late apoptosis and necrotic cells can be clearly distinguished.
HepG-2 cells were seeded in a 6-well plate (2 × 10^5 cells per well). The different concentrations of compound 8 (0, 5.5, 11, 22 μg/mL) were added and incubated for 48 h to induce apoptosis. The collected cells were centrifuged (2000 r/min) for 5 min and resuspended in PBS (200 μL). Then, 5 μL of Annexin V-FITC was added and incubated for 10 min at room temperature away from light. Finally, 5 µL propidium iodide solution was added and incubated for 5 min away from light. The fluorescence intensity was detected by flow cytometry and analyzed by utilizing FlowJo_V10 software (FlowJo X 10.0.7r2, BD Biosciences, Franklin Lakes, NJ, USA).

cytochrome C = test: Western blot of cytochrome C in the cytosol; settings: HepG-2 cells, increasing peptide concentrations, vs control
Excerpt: Moreover, as mentioned previously and in others’ reports, the apoptosis of HepG-2 induced by galaxamide might be related to a mitochondria-mediated pathway. It has been known that with the decrease in the mitochondrial membrane potential, the cytochrome C in mitochondrion is released to the cytosol and can be detected. Therefore, we have also checked the content of cytochrome C in the cytosol by Western blotting to further verify the mitochondrial apoptotic pathway.
HepG-2 cells (5 × 10^6 cells) in the medium were treated with different concentrations of compounds for the required time and were washed twice with ice-cold PBS. The cells were scraped into cell lysate buffer containing phenylmethanesulfonyl fluoride (PMSF) and transferred to a 1.5 mL centrifuge tube, then lysed for 20 min at 4 °C. After centrifuging (12,000 r/min) for 20 min, the supernatant was collected and measured using the BCA Protein Assay Kit (Beyotime Biotechnology Co. Ltd., Shanghai, China)). Protein samples were then electrophoresed on 12% SDS-polyacrylamide gels and transferred to polyvinylidene difluoride (PVDF) membranes. The membranes were then closed with 5% skim milk in Tris-buffered saline Tween 20 (TBST) (containing 50 mM Tris-HCl, 150 mM NaCl and 0.02% Tween-20) for 2 h. […]

CC(C)C[C@@H]1NC(=O)CN2C(=O)c3ccccc3[C@@]2(O)CN(Cc2ccccc2)C(=O)[C@H](CC(C)C)NC(=O)[C@H](CC(C)C)N(C)C(=O)[C@H](CC(C)C)NC(=O)[C@H](CC(C)C)NC1=O [Compound 8, 3-Hydroxy-isoindolinone-cyclo-Gly-Leu-N-Me-Leu-Leu-Leu-Leu] (cyclo(LL[NMeL]L[X1]L))
effect on lactate dehydrogenase activity [1]: significant decrease
mean mitochondrial fluorescence intensity (rhodamine 123) (HepG-2 cells [2]; 5.5 µM, 48 h): 27.1%
mean mitochondrial fluorescence intensity (rhodamine 123) (HepG-2 cells [2]; 11 µM, 12 h): 29.4%
mean mitochondrial fluorescence intensity (rhodamine 123) (HepG-2 cells [2]; 11 µM, 24 h): 24.3%
mean mitochondrial fluorescence intensity (rhodamine 123) (HepG-2 cells [2]; 11 µM, 48 h): 20.2%
mean mitochondrial fluorescence intensity (rhodamine 123) (HepG-2 cells [2]; 22 µM, 48 h): 14.3%
Q3 cells (apoptosis cells) (HepG-2 cells [3]; 22 μM): 32.4%
Q4 cells (viable, lower left) (HepG-2 cells [3]; 5.5 µM): 86.2%
Q4 cells (viable, lower left) (HepG-2 cells [3]; 11 µM): 77.3%
Q4 cells (viable, lower left) (HepG-2 cells [3]; 22 µM): 65.4%
level of cytochrome C in the cytosol (cytochrome C): increased significantly
